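Cells were grown in 96-well plates and exposed to each compound for 48 hours at five concentrations; endpoints were interpolated linearly between bracketing concentrations, or set to the highest concentration if not reached. GI50 is the concentration that inhibits growth by half.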 Calls of active or inactive are those of the source. Rule as the data show it: active = GI50 up to about 1.1 µM and inactive = higher. Starred links: 1 amine or outer side, 2 acyl side, 3 side chain; linkers in the order of their positions; H or OH if unused. Non-standard residues stand in square brackets, D forms with d. Residues, ends and D or L forms follow the SMILES beside them. *: point of attachment. X47 = CCC(=O)CC1CC(C)CC(C(=O)[*:2])N1[*:1]; X46 = CCCCCCCCC(C)C(=O)*; Aib = CC(C)(N)C(=O)O; X48 = CC(CN(C)CCO)N*
Legend:
Test in all cases: growth of human tumour cells (NCI), 48 h
NCI-H226 = tested on: NCI-H226
HOP-92 = tested on: HOP-92
EKVX = tested on: EKVX
T47D = tested on: T47D
HCT-116 = tested on: HCT-116
Malme-3M = tested on: Malme-3M
UACC-62 = tested on: UACC-62
A549 = tested on: A549
HCC 2998 = tested on: HCC 2998
SK-OV-3 = tested on: SK-OV-3
NCI-H460 = tested on: NCI-H460
U-251 = tested on: U-251
OVCAR-8 = tested on: OVCAR-8
TK-10 = tested on: TK-10
MOLT-4 = tested on: MOLT-4
MDA-N = tested on: MDA-N
SW-620 = tested on: SW-620
SF-268 = tested on: SF-268
UACC-257 = tested on: UACC-257
RPMI-8226 = tested on: RPMI-8226

| Compound | GI50 (NCI-H226) | GI50 (HOP-92) | GI50 (EKVX) | GI50 (T47D) | GI50 (HCT-116) | GI50 (Malme-3M) | GI50 (UACC-62) | GI50 (A549) | GI50 (HCC 2998) | GI50 (SK-OV-3) | GI50 (NCI-H460) | GI50 (U-251) | GI50 (OVCAR-8) | GI50 (TK-10) | GI50 (MOLT-4) | GI50 (MDA-N) | GI50 (SW-620) | GI50 (SF-268) | GI50 (UACC-257) | GI50 (RPMI-8226) |
| --- | --- | --- | --- | --- | --- | --- | --- | --- | --- | --- | --- | --- | --- | --- | --- | --- | --- | --- | --- | --- |
| CCCCCCCCCCCCCCCCCCNc1ccn(C2OC(COP(=O)(O)OCC3OC(n4ccc(N)nc4=O)C(O)C3O)C(O)C2O)c(=O)n1 (stereo not given) | > 100 µM (inactive) | > 51.3 µM (inactive) | > 100 µM (inactive) | > 78.3 µM (inactive) | 18.8 µM (inactive) | > 50 µM (inactive) | > 93.3 µM (inactive) | 8.59 µM (inactive) | 38.2 µM (inactive) | > 86.9 µM (inactive) | 14.3 µM (inactive) | 57.8 µM (inactive) | 20 µM (inactive) | > 100 µM (inactive) | 2.45 µM (inactive) | > 100 µM (inactive) | > 89.7 µM (inactive) | 63.8 µM (inactive) | > 100 µM (inactive) | > 100 µM (inactive) |
| C=CC(C)CCC(C/C=C(\C)CCCC(C)C)C(=C)CCCC(C)C (stereo not given) | > 100 µM (inactive) | > 100 µM (inactive) | > 100 µM (inactive) | > 100 µM (inactive) | > 100 µM (inactive) | > 100 µM (inactive) | > 100 µM (inactive) | > 100 µM (inactive) | > 100 µM (inactive) | > 100 µM (inactive) | > 100 µM (inactive) | > 100 µM (inactive) | > 100 µM (inactive) | > 100 µM (inactive) | > 100 µM (inactive) | > 100 µM (inactive) | > 100 µM (inactive) | > 100 µM (inactive) | > 100 µM (inactive) | > 100 µM (inactive) |
| CC(=O)OC1C(O)COC(O[C@H]2CC[C@]34C[C@]35CC[C@]3(C)C([C@@]6(C)CC[C@@H](C(C)(C)O)O6)[C@@H](O)C[C@@]3(C)C5C[C@H](OC3OCC(O)C(O)C3O)[C@H]4C2(C)C)C1OC1OCC(O)C(O)C1O (stereo not given in full) | > 100 µM (inactive) | > 100 µM (inactive) | > 100 µM (inactive) | > 100 µM (inactive) | > 100 µM (inactive) | > 100 µM (inactive) | > 100 µM (inactive) | > 100 µM (inactive) | > 100 µM (inactive) | > 100 µM (inactive) | > 100 µM (inactive) | > 100 µM (inactive) | > 100 µM (inactive) | > 100 µM (inactive) | > 100 µM (inactive) | > 100 µM (inactive) | > 100 µM (inactive) | > 100 µM (inactive) | > 100 µM (inactive) | > 100 µM (inactive) |
| CC1(C)NC(C)(C)/C(=N\O)C(=NO)/C1=N/O | > 100 µM (inactive) | > 100 µM (inactive) | > 100 µM (inactive) | > 100 µM (inactive) | > 100 µM (inactive) | > 100 µM (inactive) | > 100 µM (inactive) | > 100 µM (inactive) | > 100 µM (inactive) | > 100 µM (inactive) | > 100 µM (inactive) | > 100 µM (inactive) | > 100 µM (inactive) | > 100 µM (inactive) | > 100 µM (inactive) | > 100 µM (inactive) | > 100 µM (inactive) | > 100 µM (inactive) | > 100 µM (inactive) | > 100 µM (inactive) |
| CO[C@H]1C[C@H](O[C@H]2CC[C@@]3(C)[C@H](CC[C@@H]4[C@@H]3CC[C@]3(C)[C@@H](C5=CC(=O)OC5)CC[C@]43O)C2)O[C@H](C)[C@H]1O | < 0.0184 µM (active) | < 0.01 µM (active) | < 0.01 µM (active) | < 0.01 µM (active) | < 0.01 µM (active) | < 0.01 µM (active) | < 0.0125 µM (active) | < 0.01 µM (active) | 0.015 µM (active) | < 0.0113 µM (active) | < 0.01 µM (active) | < 0.01 µM (active) | < 0.01 µM (active) | < 0.0246 µM (active) | < 0.01 µM (active) | < 0.01 µM (active) | < 0.01 µM (active) | < 0.01 µM (active) | < 0.0137 µM (active) | < 0.01 µM (active) |
| CC(=NNC(=S)Nc1ccccc1C)c1cccc(C(C)=NNC(=S)Nc2ccccc2C)n1 | 9.73 µM (inactive) | 11.4 µM (inactive) | 76 µM (inactive) | > 100 µM (inactive) | 18.4 µM (inactive) | 15.5 µM (inactive) | 45.1 µM (inactive) | 24.2 µM (inactive) | > 100 µM (inactive) | > 100 µM (inactive) | 15.3 µM (inactive) | 34.4 µM (inactive) | 17.4 µM (inactive) | 23.7 µM (inactive) | 14.1 µM (inactive) | > 100 µM (inactive) | 57.5 µM (inactive) | 5.81 µM (inactive) | 27.6 µM (inactive) | > 100 µM (inactive) |
| CCCCCCCCC(C)C(=O)N1CCCC1C(=O)N1C(CC(=O)CC)CC(C)CC1C(=O)NC(C)C(=O)NC(C)(C)C(=O)NC(C)(C)C(=O)NC(C(=O)NC(C)C(=O)NC(C)(C)C(=O)NC(C)(C)C(=O)NC(C)CN(C)CCO)C(C)CC (stereo not given) (X46-P[X47]A[Aib][Aib]IA[Aib][Aib]-X48; configuration not given here) | 0.133 µM (active) | < 0.01 µM (active) | < 0.01 µM (active) | < 0.01 µM (active) | 0.0299 µM (active) | 1.26 µM (inactive) | 1.89 µM (inactive) | < 0.01 µM (active) | 0.0385 µM (active) | 1.19 µM (inactive) | 0.0204 µM (active) | < 0.0498 µM (active) | < 0.01 µM (active) | 0.09 µM (active) | 0.08 µM (active) | 1.17 µM (inactive) | 0.0794 µM (active) | 0.581 µM (active) | < 0.01 µM (active) | < 0.0181 µM (active) |

— ChEMBL document CHEMBL1201862, “PubChem BioAssay data set” (2004)
